Reference: patent US3954972A, “Antibiotic A-26771 factor” (Eli Lilly and Company, priority 1975, dated 1976)
“Also recorded” adds a separate entry of the source. Like-named read-outs stand apart in the source and are kept apart here.

Legend:
[1] = system: Saccharomyces pastorianum; assay: microbe, parasite or virus in culture; type: cell-based
[2] = system: Escherichia coli; assay: microbe, parasite or virus in culture; type: cell-based
[3] = electrometric titration; type: physicochemical; settings: 66 percent dimethylformamide
[4] = system: Staphylococcus aureus; assay: microbe, parasite or virus in culture; type: cell-based
[5] = system: Serratia marcescens; assay: microbe, parasite or virus in culture; type: cell-based
[6] = system: several viruses, including polioviruses and Coxsackie virus; type: cell-based
[7] = system: Neurospora crassa; assay: microbe, parasite or virus in culture; type: cell-based
[8] = system: White Swiss mice; assay: survival of mice after intraperitoneal injection; settings: groups of four mice
[9] = system: poliovirus III; type: in vivo, mice; settings: for Z (zone diameter of viral inhibition by serum): BSC1 cells
[10] = system: Sarcina lutea; assay: microbe, parasite or virus in culture; type: cell-based; settings: Micrococcus luteus
[11] = system: Bacillus subtilis; assay: microbe, parasite or virus in culture; type: cell-based
[12] = system: Type III poliovirus; assay: microbe, parasite or virus in culture; type: cell-based
[13] = system: Mycobacterium avium; assay: disc-plate assay, Mycobacterium avium; type: cell-based
[14] = system: Candida albicans; assay: microbe, parasite or virus in culture; type: cell-based
[15] = system: Trichophyton mentagrophytes; assay: microbe, parasite or virus in culture; type: cell-based
[16] = system: Coxsackie virus A-21 (COE strain); assay: microbe, parasite or virus in culture; type: cell-based; settings: read-out: diameter of zone of virus inhibition
[17] = system: Fusarium moniliforme; assay: microbe, parasite or virus in culture; type: cell-based; settings: Fusarium verticillioides
[18] = system: Klebsiella pneumoniae; assay: microbe, parasite or virus in culture; type: cell-based
[19] = system: Verticillium albo-atrum; assay: in vitro susceptibility (MIC), Verticillium albo-atrum; type: cell-based
[20] = system: Xanthomonas phaseoli; assay: microbe, parasite or virus in culture
[21] = system: Mycoplasma synoviae; assay: microbe, parasite or virus in culture; settings: Mycoplasmopsis synoviae
[22] = system: Streptococcus faecalis; assay: microbe, parasite or virus in culture; settings: Enterococcus faecalis
[23] = system: Candida tropicalis; assay: microbe, parasite or virus in culture
[24] = system: Mycoplasma hyopneumoniae; assay: microbe, parasite or virus in culture; settings: Mesomycoplasma hyopneumoniae
[25] = system: Mycoplasma hyosynoviae; assay: microbe, parasite or virus in culture
[26] = system: Botrytis cinerea; assay: in vitro susceptibility (MIC), Botrytis cinerea; type: cell-based
[27] = system: Erwinia amylovora; assay: microbe, parasite or virus in culture
[28] = system: Vibrio coli; assay: microbe, parasite or virus in culture; settings: Campylobacter coli
[29] = system: Mycoplasma gallisepticum; assay: microbe, parasite or virus in culture; settings: Mycoplasmoides gallisepticum
[30] = system: Staphylococcus aureus; assay: microbe, parasite or virus in culture
[31] = system: Trichophyton mentagrophytes; assay: microbe, parasite or virus in culture
[32] = system: Mycoplasma granularum; assay: microbe, parasite or virus in culture; settings: Acholeplasma granularum
[33] = system: Pasteurella multocida; assay: microbe, parasite or virus in culture
[34] = system: Ceratocystis ulmi; assay: in vitro susceptibility (MIC), Ceratocystis ulmi; type: cell-based
[35] = 29 mg./kg. intraperitoneal, One Hour
[36] = 29 mg./kg. intraperitoneal, Six Hours
[37] = 58 mg./kg. intraperitoneal, One Hour
[38] = 58 mg./kg. intraperitoneal, Six Hours
[39] = 117 mg./kg. intraperitoneal, One Hour
[40] = 234 mg./kg. intraperitoneal, One Hour
[41] = Enterovirus C, read-out: diameter of zone of virus inhibition
[42] = Enterovirus C; read-out: diameter of zone of virus inhibition

## CN1C(=O)C2(Cc3ccccc3)SSC1(CO)C(=O)N2C (single isomer, unassigned) [Factor A, 3-benzyl-6-(hydroxymethyl)-1,4-dimethyl-3,6-epidithio-2,5-piperazinedione]
[1]
  zone of inhibition at 100 µg/mL: 19 mm
  zone of inhibition at 1000 µg/mL: 32 mm
[2]
  zone of inhibition at 1000 µg/mL: 12 mm
[3]
  titratable groups: did not indicate the presence of titratable groups
[4]
  zone of inhibition at 100 µg/mL: 12 mm
  zone of inhibition at 1000 µg/mL: 23 mm
[5]
  zone of inhibition at 1000 µg/mL: 14 mm
[6]; tissue culture
  antiviral activity: demonstrated against several viruses, including polioviruses and Coxsackie virus; also recorded: antiviral agents; also recorded: antiviral activity
[7]
  zone of inhibition at 100 µg/mL: 13 mm
  zone of inhibition at 1000 µg/mL: 27 mm
[8]; [35]
  Survivors: 4
[8]; [36]
  Survivors: 4
[8]; [37]
  Survivors: 4
[8]; [38]
  Survivors: 4
[8]; [39]
  Survivors: 4
[8]; 117 mg./kg. intraperitoneal, Six Hours
  Survivors: 0
[8]; [40]
  Survivors: 4
[8]; 234 mg./kg. intraperitoneal, Six Hours
  Survivors: 0
[9]; [35]
  Z (zone diameter of viral inhibition by serum): 20 millimeters
[9]; [36]
  Z (zone diameter of viral inhibition by serum): 18 millimeters
[9]; [37]
  Z (zone diameter of viral inhibition by serum): 24 millimeters
[9]; [38]
  Z (zone diameter of viral inhibition by serum): 23 millimeters
[9]; [39]
  Z (zone diameter of viral inhibition by serum): 29 millimeters
[9]; [40]
  Z (zone diameter of viral inhibition by serum): 30 millimeters
[9]; biological activity of serum levels in mice
  antiviral activity in vivo: demonstrated in vivo from the biological activity of serum levels in mice
[10]
  zone of inhibition at 100 µg/mL: 18 mm
  zone of inhibition at 1000 µg/mL: 28 mm
[11]
  zone of inhibition at 100 µg/mL: 11 mm
  zone of inhibition at 1000 µg/mL: 22 mm
[12]; [41]
  zone of inhibition at 1.5 µg/mL: 16 mm
  zone of inhibition at 3.2 µg/mL: 24 mm
  zone of inhibition at 7.5 µg/mL: 30 mm
  zone of inhibition at 15 µg/mL: 34 mm
  zone of inhibition at 31.1 µg/mL: 38 mm
  zone of inhibition at 62.2 µg/mL: 40 mm
  zone of inhibition at 125 µg/mL: 44 mm
  zone of inhibition at 250 µg/mL: 46 mm
  zone of inhibition at 500 µg/mL: 50 mm
  zone of inhibition at 1000 µg/mL: 50 mm
[13]
  zone of inhibition at 1000 µg/mL: 14 mm
[14]
  zone of inhibition at 1000 µg/mL: 28 mm
[15]
  zone of inhibition at 100 µg/mL: 19 mm
  zone of inhibition at 1000 µg/mL: 27 mm
[16]
  zone of inhibition at 1.5 µg/mL: 15 mm
  zone of inhibition at 3.2 µg/mL: 20 mm
  zone of inhibition at 7.5 µg/mL: 26 mm
  zone of inhibition at 15 µg/mL: 32 mm
  zone of inhibition at 31.1 µg/mL: 35 mm
  zone of inhibition at 62.2 µg/mL: 38 mm
  zone of inhibition at 125 µg/mL: 40 mm
  zone of inhibition at 250 µg/mL: 45 mm
  zone of inhibition at 500 µg/mL: 50 mm
  zone of inhibition at 1000 µg/mL: 52 mm
[17]
  zone of inhibition at 100 µg/mL: 10 mm
  zone of inhibition at 1000 µg/mL: 14 mm
[18]
  zone of inhibition at 1000 µg/mL: 12 mm

## CC1CCCCCCCCCC(OC(=O)CCC(=O)O)C(=O)/C=C/C(=O)O1 (centres unmarked) [Factor B, mono(16-methyl-2,5-dioxooxacyclohexadec-3-en-6-yl) succinate]
[19]
  MIC: 50 µg/mL
[20]
  MIC: 50 µg/mL
[1]
  zone of inhibition at 100 µg/mL: 12 mm
  zone of inhibition at 1000 µg/mL: 25 mm
[21]
  MIC: 12.5 µg/mL
[4]
  zone of inhibition at 100 µg/mL: 15 mm
  zone of inhibition at 1000 µg/mL: 24 mm
[22]
  MIC: 25 µg/mL
[23]
  MIC: 100 µg/mL
[24]
  MIC: 12.5 µg/mL
[25]
  MIC: 12.5 µg/mL
[7]
  zone of inhibition at 1000 µg/mL: 13 mm
[26]
  MIC: 12.5 µg/mL
[27]
  MIC: < 0.78 µg/mL
[28]
  MIC: 50 µg/mL
[10]
  zone of inhibition at 100 µg/mL: 12 mm
  zone of inhibition at 1000 µg/mL: 22 mm
[29]
  MIC: 3.12 µg/mL
[11]
  zone of inhibition at 1000 µg/mL: 14 mm
[30]
  MIC: < 1.56 µg/mL
[31]
  MIC: 6.25 µg/mL
[32]
  MIC: 50 µg/mL
[33]
  MIC: 6.25 µg/mL
[15]
  zone of inhibition at 1000 µg/mL: 14 mm
[34]
  MIC: 6.25 µg/mL

## CN1C(=O)C2(Cc3ccccc3)SSSSC1(CO)C(=O)N2C (centres unmarked) [Factor C, 3-benzyl-6-(hydroxymethyl)-1,4-dimethyl-3,6-epitetrathio-2,5-piperazinedione]
[6]
  antiviral activity: demonstrated against several viruses, including polioviruses and Coxsackie virus; also recorded: antiviral agents; also recorded: antiviral activity
[12]; [42]
  zone of inhibition at 100 µg/mL: 40 mm
  zone of inhibition at 1000 µg/mL: 50 mm
[16]
  zone of inhibition at 100 µg/mL: 40 mm
  zone of inhibition at 1000 µg/mL: 50 mm
